{
  "source": "patent US11400091B2",
  "about": "“AXL kinase inhibitors and use of the same” (Sumitomo Pharma Oncology, Inc., priority 2018, dated 2022)",
  "key": {"ES-2 cells": {"system": "ES-2 cells", "assay": "Scratch assay, migration of ovarian tumor cells", "format": "cell-based", "conditions": "6 hours pre-treatment; images 18 hours post-scratching; BMS-777607 up to 10 μM"}, "[1]": {"assay": "Dynamic Vapor Sorption (DVS)", "format": "physicochemical", "conditions": "25° C.", "method": "The Dynamic Vapour Sorption studies were performed using a Surface Measurement Systems Ltd. DVS-1 No Video, equipment #2126. The sample is loaded into balance pan, typically 20-30 mg, and equilibrated at 0% RH. […] After completion of the sorption cycle, the sample was dried using the same method. The software used for data collection is DVSWin v3.01 No Video. Data analysis is performed using DVS Standard Analysis Suite v6.3.0 (Standard)."}, "[2]": {"assay": "Kinetic solubility in bio-relevant buffers", "format": "physicochemical", "conditions": "for solubility at 24 h: 37 °C, thermodynamic from solid"}, "pH solubility": {"assay": "pH solubility", "format": "physicochemical", "conditions": "for solubility at 24 h: 37 °C, thermodynamic from solid; for FC (form change) of residual solid: 24 hours"}, "[3]": {"assay": "Single dose toxicity study", "format": "in vivo", "conditions": "single oral 150 mg/kg (free base equivalent); by the end of the recovery period", "method": "The FB dose levels evaluated were 20, 50, and 150 mg/kg. The test articles were formulated with 1% Tween 80/5% TPGS/Sterile Water for Injection (v/v/v) and the study designed as indicated in Table 15 below:\nEndpoints in the study consisted of mortality checks, clinical observations, body weight measurements and toxicokinetics. Following a 7-day post-dose observation period, animals were euthanized, necropsied and macroscopic observations recorded."}, "[4]": {"assay": "Moisture sorption isotherm of crystalline forms", "format": "physicochemical"}, "[5]": {"assay": "7-day repeat dose toxicity and toxicokinetics", "format": "in vivo, CD-1 mice", "conditions": "high dose level (80 mg/kg/day)", "text": "The test articles were formulated with 1% Tween 80/5% TPGS/Sterile Water for Injection (v/v/v) and the study designed as indicated in Table 16 below:\nEndpoints during the study consisted of clinical observations, body weight, and toxicokinetics. Animals euthanized due to excessive body weight loss in the toxicology-designated groups were euthanized, necropsied, and macroscopic observations recorded."}, "[6]": {"assay": "Stability studies of crystalline forms (HPLC)", "format": "physicochemical", "conditions": "for Stability by HPLC: mono-tartrate salt"}, "[7]": {"assay": "Solid state stability at 40° C./75% RH", "format": "physicochemical", "method": "Agilent 1260 HPLC was utilized and detailed chromatographic conditions for purity and solubility measurement are listed in Table 13 below.\nThe table below summarizes the characterization and solid state stability results observed for FB and Forms A, B, and D. Samples were prepared and data was obtained according to the procedures and processes listed above unless otherwise specified. More procedures, processes, and results are listed below in Table 14."}, "[8]": {"system": "CYP26 mRNA in MV4-11 leukemia cells", "assay": "CYP26 mRNA expression (RT-PCR)", "format": "cell-based", "conditions": "1 μM RA; 6 hours"}, "H1650": {"system": "H1650", "assay": "H1650 NSCLC xenograft", "format": "in vivo, athymic nude mice", "conditions": "21-day regimen; tartrate salt 40 mpk qd; osimertinib 20 mpk qd", "method": "H1650 cells were injected subcutaneously into the hind flank of athymic nude mice at 1×10^7 cells/mouse. Once tumor volumes exceeded 100 mm^3, mice were randomized into study arms.\nTo assess the combination in vivo, the H1650 xenograft model for NSCFC was utilized. […] Slug and E-cadherin mRNA expression was assessed by standard qPCR technique. […] Slug and E-cadherin protein expression was assessed by standard immunoblotting technique.\n(§1) Tumor volumes and bodyweights were assessed twice weekly.\nas §1"}, "H1650 NSCLC cell line": {"system": "H1650 NSCLC cell line", "assay": "H1650 cell viability (CellTiter-Glo)", "format": "cell-based", "conditions": "Homo sapiens, NCI-H1650"}},
  "data": [
    {"compound": "CCOc1ccn(-c2ccc(F)cc2)c(=O)c1C(=O)Nc1ccc(Oc2ccnc(N)c2Cl)c(F)c1", "note": "[BMS-777607]", "values": [
      {"measurement": "migration of ES-2 cells", "setting": "ES-2 cells", "result": "did not inhibit migration"}
    ]},
    {"compound": "CN1CCN(Cc2ccc(Nc3ncc(Cl)c(Nc4ccccc4S(=O)(=O)N(C)C)n3)cc2)CC1.O=C(O)C(O)C(O)C(=O)O", "note": "[Form D, 2-((5-chloro-2-((4-((4-methylpiperazin-1-yl)methyl)phenyl)amino)pyrimidin-4-yl)amino)-N,N-dimethylbenzenesulfonamide mono-tartrate salt]", "values": [
      {"measurement": "water uptake at 80% RH", "setting": "[1]; DVS, mono-tartrate salt", "result": 5.2, "unit": "%"},
      {"measurement": "FC (form change) after DVS", "setting": "[1]; up to 80% RH", "result": "Yes"},
      {"measurement": "solubility at 24 h", "setting": "[2]; FaSSIF, 24 hours", "result": 3900, "unit": "µg/mL"},
      {"measurement": "FC (form change) of residual solid", "setting": "[2]; FaSSIF, 24 hours", "result": "Yes"},
      {"measurement": "solubility at 24 h", "setting": "[2]; FeSSIF, 24 hours", "result": 4600, "unit": "µg/mL"},
      {"measurement": "solubility at 24 h", "setting": "[2]; SGF, simulated gastric fluid, 24 hours", "result": "> 11000", "unit": "µg/mL"},
      {"measurement": "solubility kinetic", "setting": "[2]; bio-relevant buffers (FaSSIF, fassgf or other biorelevant, thermodynamic from solid), FaSSIF, FeSSIF and SGF, 37° C., read-out: kinetic solubility in all biorelevant buffers", "result": "> 5000", "unit": "µg/mL"},
      {"measurement": "solubility at 24 h", "setting": "pH solubility; pH 2.0 buffer, pH 2, aqueous buffer", "result": "> 6800", "unit": "µg/mL"},
      {"measurement": "FC (form change) of residual solid", "setting": "pH solubility; pH 4.0", "result": "Yes"},
      {"measurement": "solubility at 24 h", "setting": "pH solubility; pH 4.0 buffer, pH 4, aqueous buffer", "result": 230, "unit": "µg/mL"},
      {"measurement": "FC (form change) of residual solid", "setting": "pH solubility; pH 6.0", "result": "Yes"},
      {"measurement": "solubility at 24 h", "setting": "pH solubility; pH 6.0 buffer, pH 6, aqueous buffer", "result": 1900, "unit": "µg/mL"},
      {"measurement": "FC (form change) of residual solid", "setting": "pH solubility; pH 8.0", "result": "Yes"},
      {"measurement": "solubility at 24 h", "setting": "pH solubility; pH 8.0 buffer, pH 8, aqueous buffer", "result": 5, "unit": "µg/mL"},
      {"measurement": "FC (form change) of residual solid", "setting": "pH solubility; pH 10.0", "result": "Yes"},
      {"measurement": "solubility at 24 h", "setting": "pH solubility; pH 10.0 buffer, pH 10, aqueous buffer", "result": 53, "unit": "µg/mL"},
      {"measurement": "mortality", "setting": "[3]", "result": 100, "unit": "%"},
      {"measurement": "Moisture sorption isotherm", "setting": "[4]", "result": "hygroscopic"},
      {"measurement": "crystal form by XRPD after the moisture absorption/desorption cycle", "setting": "[4]", "result": "transformed to the other forms"},
      {"measurement": "mortality", "setting": "[5]", "result": "one mouse died"},
      {"measurement": "Stability Results", "setting": "[6]; 40° C.", "result": 98.2, "unit": "%"},
      {"measurement": "Stability Results", "setting": "[6]; 40° C./75% RH", "result": 98.4, "unit": "%"},
      {"measurement": "Stability Results", "setting": "[6]; 60° C.", "result": 98.2, "unit": "%"},
      {"measurement": "Stability Results", "setting": "[6]; 60° C./75% RH", "result": 98.2, "unit": "%"},
      {"measurement": "Stability Results", "setting": "[6]; Initial", "result": 98.4, "unit": "%"},
      {"measurement": "Stability by HPLC", "setting": "[6]; listed as D", "result": "Stable"},
      {"measurement": "Stability by HPLC", "setting": "[6]", "result": "No significant changes"},
      {"measurement": "Form Change at 3 weeks", "setting": "[7]; 3 weeks under 40° C./75% RH", "result": "No"},
      {"measurement": "HPLC Purity at 3 weeks (area %)", "setting": "[7]; 3 weeks under 40° C./75% RH", "result": 98.3, "unit": "area %"},
      {"measurement": "Initial HPLC Purity (area %)", "setting": "[7]; initial, before storage", "result": 98.8, "unit": "area %"}
    ]},
    {"compound": "Retinyl Acetate [RA]", "values": [
      {"measurement": "induction in mRNA expression levels of CYP26", "setting": "[8]", "result": "~4.3", "unit": "fold"}
    ]},
    {"compound": "C=CC(=O)Nc1cc(Nc2nccc(-c3cn(C)c4ccccc34)n2)c(OC)cc1N(C)CCN(C)C", "note": "[osimertinib]", "values": [
      {"measurement": "tumor growth inhibition (% TGI), single agent", "setting": "H1650", "result": 121, "unit": "%"},
      {"measurement": "EC50", "setting": "H1650 NSCLC cell line", "result": 2200, "unit": "nM"},
      {"measurement": "IC50", "setting": "H1650 NSCLC cell line; single agent, 72 hours", "result": 2200, "unit": "nM"}
    ]}
  ]
}
